Measured values reported in patent US12660820B2, “Heterocyclic compound and harmful arthropod-controlling composition including same” (SUMITOMO CHEMICAL COMPANY, LIMITED, priority 2020, dated 2026).

Tested on: cotton aphids (Aphis gossypii)
Assay: Test Method 9: foliar spray on cucumber seedling infested with cotton aphids (Formulation Example 5)
Format: in vivo
Conditions: Test Example 9-1; 200 ppm; 5 days after spraying
Procedure: Cucumber (Cucumis sativus) seedling (on the developmental stage of the second true leaf) is planted in a container and approximately 30 cotton aphids (Aphis gossypii) (all developmental stages of life) are released onto the leaves of the cucumber. After 1 day, the diluted solutions are sprayed to the seedling at a ratio of 10 mL/seedling. Further, after 5 days, the number of the surviving insects is examined and the controlling value is calculated by the following equation. Controlling value (%)={1−(Cb×Tai)/(Cai×Tb)}×100 wherein the symbols in the formula represent the following descriptions. • Cb: Number of the test insects in untreated group; • Cai: Number of the surviving insects at the time of the investigation in untreated group; • Tb: Number of the test insects in treated group; • Tai: Number of the surviving insects at the time of the investigation in treated group; Here the “untreated group” represents a group where the similar treatment procedure to that of the treated group except not using the test compound is done.

CCS(=O)(=O)c1c(-c2cnc3cc(C(F)(F)F)ccn3c2=O)nc2cc(C(F)(F)F)ccn12 [compound 6]
Controlling value: ≥ 90%
